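Where inhibition never reached the appropriate level, the endpoint shown equals the highest concentration tested. Otherwise, values were interpolated linearly from a five-concentration, 48-hour dose response in 96-well plates. At the GI50, growth is halved.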 The source made the active and inactive calls. No stated cut-off is given here; in the data, active = GI50 up to about 1.1 µM and inactive = higher.
Assays:
Test in all cases: growth of human tumour cells (NCI), 48 h
[1] = tested on: 786-0
[2] = tested on: A498
[3] = tested on: A549
[4] = tested on: ACHN
[5] = tested on: BT-549
[6] = tested on: CAKI-1
[7] = tested on: CCRF-CEM
[8] = tested on: COLO 205
[9] = tested on: DU-145
[10] = tested on: EKVX
[11] = tested on: HCC 2998
[12] = tested on: HCT-116
[13] = tested on: HCT-15
[14] = tested on: HOP-62
[15] = tested on: HOP-92
[16] = tested on: HT-29
[17] = tested on: Hs-578T
[18] = tested on: IGROV-1
[19] = tested on: K562
[20] = tested on: KM12
[21] = tested on: LOX IMVI
[22] = tested on: M14
[23] = tested on: MCF7
[24] = tested on: MDA-MB-231
[25] = tested on: MDA-MB-435
[26] = tested on: MDA-N
[27] = tested on: MOLT-4
[28] = tested on: Malme-3M
[29] = tested on: NCI-H226
[30] = tested on: NCI-H23
[31] = tested on: NCI-H460
[32] = tested on: NCI-H522
[33] = tested on: NCI/ADR-RES
[34] = tested on: OVCAR-3
[35] = tested on: OVCAR-4
[36] = tested on: OVCAR-5
[37] = tested on: OVCAR-8
[38] = tested on: PC-3
[39] = tested on: RPMI-8226
[40] = tested on: RXF 393
[41] = tested on: SF-268
[42] = tested on: SF-295
[43] = tested on: SF-539
[44] = tested on: SK-MEL-28
[45] = tested on: SK-MEL-2
[46] = tested on: SK-MEL-5
[47] = tested on: SK-OV-3
[48] = tested on: SN12C
[49] = tested on: SNB-19
[50] = tested on: SNB-75
[51] = tested on: SR
[52] = tested on: SW-620
[53] = tested on: T47D
[54] = tested on: TK-10
[55] = tested on: U-251
[56] = tested on: UACC-257
[57] = tested on: UACC-62
[58] = tested on: UO-31
[59] = tested on: HL-60

## CC(=O)n1nc(-c2[nH]c(C)c(-c3nn(C(C)=O)c(=S)o3)c2C)oc1=S
[1]
  GI50: 97.7 µM (inactive)
[2]
  GI50: > 100 µM (inactive)
[3]
  GI50: > 100 µM (inactive)
[4]
  GI50: > 100 µM (inactive)
[5]
  GI50: > 100 µM (inactive)
[6]
  GI50: > 100 µM (inactive)
[7]
  GI50: 12.9 µM (inactive)
[8]
  GI50: > 100 µM (inactive)
[9]
  GI50: > 100 µM (inactive)
[10]
  GI50: > 100 µM (inactive)
[11]
  GI50: > 100 µM (inactive)
[12]
  GI50: > 100 µM (inactive)
[13]
  GI50: > 100 µM
[14]
  GI50: > 100 µM (inactive)
[15]
  GI50: > 100 µM (inactive)
[16]
  GI50: > 100 µM (inactive)
[17]
  GI50: > 100 µM (inactive)
[18]
  GI50: > 100 µM (inactive)
[19]
  GI50: > 100 µM (inactive)
[20]
  GI50: > 100 µM (inactive)
[21]
  GI50: 82.8 µM (inactive)
[22]
  GI50: > 100 µM (inactive)
[23]
  GI50: > 100 µM (inactive)
[24]
  GI50: > 100 µM (inactive)
[25]
  GI50: > 100 µM (inactive)
[26]
  GI50: > 100 µM (inactive)
[27]
  GI50: 6.89 µM (inactive)
[28]
  GI50: 30.1 µM (inactive)
[29]
  GI50: > 54 µM (inactive)
[30]
  GI50: > 100 µM (inactive)
[31]
  GI50: > 100 µM (inactive)
[32]
  GI50: > 85.7 µM (inactive)
[33]
  GI50: > 100 µM (inactive)
[34]
  GI50: > 100 µM (inactive)
[35]
  GI50: > 100 µM (inactive)
[36]
  GI50: > 100 µM (inactive)
[37]
  GI50: > 100 µM (inactive)
[38]
  GI50: > 100 µM (inactive)
[39]
  GI50: > 56.6 µM (inactive)
[40]
  GI50: > 100 µM (inactive)
[41]
  GI50: > 100 µM (inactive)
[42]
  GI50: > 100 µM (inactive)
[43]
  GI50: 81.7 µM (inactive)
[44]
  GI50: > 100 µM (inactive)
[45]
  GI50: > 62.4 µM (inactive)
[46]
  GI50: > 100 µM (inactive)
[47]
  GI50: > 100 µM (inactive)
[48]
  GI50: > 100 µM (inactive)
[49]
  GI50: > 100 µM (inactive)
[50]
  GI50: > 32.3 µM (inactive)
[51]
  GI50: 41 µM (inactive)
[52]
  GI50: > 100 µM (inactive)
[53]
  GI50: > 100 µM (inactive)
[54]
  GI50: > 100 µM (inactive)
[55]
  GI50: > 100 µM (inactive)
[56]
  GI50: > 100 µM (inactive)
[57]
  GI50: > 100 µM (inactive)
[58]
  GI50: > 100 µM (inactive)

## C/C=C/c1cc2c(cc1O)CC[C@@H]1[C@@H]2CC[C@]2(C)[C@@H](O)CC[C@@H]12
[1]
  GI50: 0.053 µM (active)
[2]
  GI50: 0.146 µM (active)
[3]
  GI50: 0.0536 µM (active)
[4]
  GI50: 0.0594 µM (active)
[5]
  GI50: 1.6 µM (inactive)
[6]
  GI50: 0.0144 µM (active)
[7]
  GI50: 0.0289 µM (active)
[8]
  GI50: 11.7 µM (inactive)
[9]
  GI50: 0.0849 µM (active)
[10]
  GI50: 5.07 µM (inactive)
[11]
  GI50: 0.705 µM (active)
[12]
  GI50: 0.022 µM (active)
[13]
  GI50: 0.069 µM
[59]
  GI50: 0.0183 µM (active)
[14]
  GI50: 0.0791 µM (active)
[16]
  GI50: 6.34 µM (inactive)
[17]
  GI50: 0.0653 µM (active)
[18]
  GI50: 1.96 µM (inactive)
[19]
  GI50: 0.016 µM (active)
[20]
  GI50: 1.24 µM (inactive)
[21]
  GI50: 0.0357 µM (active)
[22]
  GI50: 0.041 µM (active)
[23]
  GI50: 0.171 µM (active)
[24]
  GI50: 0.317 µM (active)
[25]
  GI50: 0.0102 µM (active)
[26]
  GI50: 0.0215 µM (active)
[27]
  GI50: 0.0409 µM (active)
[28]
  GI50: 0.164 µM (active)
[29]
  GI50: 0.226 µM (active)
[30]
  GI50: 0.133 µM (active)
[31]
  GI50: 0.0275 µM (active)
[32]
  GI50: < 0.0142 µM (active)
[33]
  GI50: 0.0246 µM (active)
[34]
  GI50: 0.0193 µM (active)
[35]
  GI50: 13.6 µM (inactive)
[36]
  GI50: 10.8 µM (inactive)
[37]
  GI50: 0.182 µM (active)
[38]
  GI50: 2.37 µM (inactive)
[39]
  GI50: 0.0264 µM (active)
[40]
  GI50: 0.1 µM (active)
[41]
  GI50: 0.217 µM (active)
[42]
  GI50: 0.966 µM (active)
[43]
  GI50: 0.0237 µM (active)
[44]
  GI50: 1.49 µM (inactive)
[45]
  GI50: 1.51 µM (inactive)
[46]
  GI50: 0.0289 µM (active)
[47]
  GI50: 0.183 µM (active)
[48]
  GI50: 0.08 µM (active)
[49]
  GI50: 0.0695 µM (active)
[50]
  GI50: 0.188 µM (active)
[51]
  GI50: 0.0259 µM (active)
[52]
  GI50: 0.04 µM (active)
[53]
  GI50: 14.8 µM (inactive)
[54]
  GI50: 14.3 µM (inactive)
[55]
  GI50: 0.0315 µM (active)
[56]
  GI50: 0.132 µM (active)
[57]
  GI50: 0.0246 µM (active)
[58]
  GI50: 0.372 µM (active)
